Measured values: patent EP0620225B1, “Cephalosporin derivatives” (Basilea Pharmaceutica AG, priority 1993, dated 1994)
Values after ≈ are worked out from the molar mass of the structure shown.

How the values were obtained:
Acinetobacter sp.51-156 = experiment: Antibacterial spectrum (MIC), agar dilution; format: cell-based; conditions: SP.51156, read-out: MIC
Procedure: (§1) In vitro activity was determined by minimum inhibitory concentration in a microorganism spectum by the agar dilution method in Mueller Hinton agar.

C.freundii 43 = experiment: Antibacterial spectrum (MIC), agar dilution; format: cell-based; conditions: Citrobacter freundii, read-out: MIC
Procedure: as §1

C.freundii 902 = experiment: Antibacterial spectrum (MIC), agar dilution; format: cell-based; conditions: Citrobacter freundii, read-out: MIC
Procedure: as §1

E.cloacae 908R = experiment: Antibacterial spectrum (MIC), agar dilution; format: cell-based; conditions: Enterobacter cloacae, read-out: MIC
Procedure: as §1

E.cloacae 908SSi = experiment: Antibacterial spectrum (MIC), agar dilution; format: cell-based; conditions: Enterobacter cloacae, read-out: MIC
Procedure: as §1

E.coli 25922 = experiment: Antibacterial spectrum (MIC), agar dilution; format: cell-based; conditions: Escherichia coli, read-out: MIC
Procedure: as §1

E.faecalis 6 = experiment: Antibacterial spectrum (MIC), agar dilution; format: cell-based; conditions: Enterococcus faecalis, read-out: MIC
Procedure: as §1

H.influenzae 1 = experiment: Antibacterial spectrum (MIC), agar dilution; format: cell-based; conditions: Haemophilus influenzae, read-out: MIC
Procedure: as §1

K.pneumoniae 418 = experiment: Antibacterial spectrum (MIC), agar dilution; format: cell-based; conditions: Klebsiella pneumoniae, read-out: MIC
Procedure: as §1

L.monocytogenes BK23 = experiment: Antibacterial spectrum (MIC), agar dilution; format: cell-based; conditions: Listeria monocytogenes, read-out: MIC
Procedure: as §1

M.catarrhalis RA21 = experiment: Antibacterial spectrum (MIC), agar dilution; format: cell-based; conditions: Moraxella catarrhalis, read-out: MIC
Procedure: as §1

M.morganii 6H-137 = experiment: Antibacterial spectrum (MIC), agar dilution; format: cell-based; conditions: Morganella morganii, 6H137, read-out: MIC
Procedure: as §1

N.meningitidis 69480 = experiment: Antibacterial spectrum (MIC), agar dilution; format: cell-based; conditions: Neisseria meningitidis, read-out: MIC
Procedure: as §1

P.aeruginosa 27853 = experiment: Antibacterial spectrum (MIC), agar dilution; format: cell-based; conditions: Pseudomonas aeruginosa, read-out: MIC
Procedure: as §1

P.mirabilis 2117 = experiment: Antibacterial spectrum (MIC), agar dilution; format: cell-based; conditions: Proteus mirabilis, read-out: MIC
Procedure: as §1

P.vulgaris 1028 = experiment: Antibacterial spectrum (MIC), agar dilution; format: cell-based; conditions: Proteus vulgaris, read-out: MIC
Procedure: as §1

S.agalactiae QK44 = experiment: Antibacterial spectrum (MIC), agar dilution; format: cell-based; conditions: Streptococcus agalactiae, read-out: MIC
Procedure: as §1

S.aureus 6538 = experiment: Antibacterial spectrum (MIC), agar dilution; format: cell-based; conditions: Staphylococcus aureus, read-out: MIC
Procedure: as §1

S.aureus 734 MRSA = experiment: Antibacterial spectrum (MIC), agar dilution; format: cell-based; conditions: Staphylococcus aureus, read-out: MIC
Procedure: as §1

S.marcescens 69438 = experiment: Antibacterial spectrum (MIC), agar dilution; format: cell-based; conditions: Serratia marcescens, read-out: MIC
Procedure: as §1

S.pneumoniae Q19 = experiment: Antibacterial spectrum (MIC), agar dilution; format: cell-based; conditions: Streptococcus pneumoniae, read-out: MIC
Procedure: as §1

S.pyogenes B15 = experiment: Antibacterial spectrum (MIC), agar dilution; format: cell-based; conditions: Streptococcus pyogenes, read-out: MIC
Procedure: as §1

S.viridans group 016 = experiment: Antibacterial spectrum (MIC), agar dilution; format: cell-based; conditions: Streptococcus viridans, read-out: MIC
Procedure: as §1

X.maltophilia 1AC739 = experiment: Antibacterial spectrum (MIC), agar dilution; format: cell-based; conditions: Stenotrophomonas maltophilia, read-out: MIC
Procedure: as §1

S.aureus MSSA = experiment: In vitro activity against selected species (MIC50, MIC90, range); format: cell-based; conditions: Staphylococcus aureus, medium MHB (Mueller Hinton Broth)
S.pneumoniae PEN-R = experiment: as above; format: cell-based; conditions: Streptococcus pneumoniae; for MIC: MIC range
S.viridans group = experiment: as above; format: cell-based; conditions: Streptococcus viridans
E.faecalis [1] = experiment: as above; format: cell-based; conditions: Enterococcus faecalis, medium MHA
Procedure: as §1

S.aureus MRSA = experiment: as above; format: cell-based; conditions: Staphylococcus aureus, medium MHA (Mueller Hinton Agar) +NaCl
Procedure: as §1

E.faecium = experiment: In vitro activity against selected species (MIC50, range); format: cell-based; conditions: Enterococcus faecium, medium MHA
Procedure: as §1

M.catarrhalis = experiment: In vitro activity against selected species (MIC50, MIC90, range); format: cell-based; conditions: Moraxella catarrhalis, medium IsoB
Escherichia coli 25922 = experiment: Efficacy against systemic infections (septicemia) in mice; format: in vivo; conditions: 96 h, Escherichia coli 25922, po (orally) 1 and 3 h after challenge, survival day 4
Procedure: Septicemia was induced in outbred Swiss albino mice (Jbm MoRo [specific pathogen free]; weight 16 to 20 g, Biomedical Research Laboratories, Füllinsdorf, Switzerland). Mice were infected by intraperitoneal injection of diluted overnight cultures of the test organisms. Bacterial challenge doses were 4-10 times the number of organisms required to kill 50% of untreated animals within 48 h. The test compounds were administered p.o. or s.c. 1 and 3 h after the bacterial challenge. To treat the infection with Pseudomonas aeruginosa BA an additional dose was given 5 h after challenge. Control and treatment groups at each dose were composed of five mice each. The 50% effective dose (ED50, in milligrams per kilogram) was calculated by probit analysis as described by Finney (Finney, D.J. 1978, Statistical method in biological assay, 3rd ed. Charles Griffin & Co., Ltd., London), from the survival rates on day 4 after infection.

E.faecalis [2] = experiment: In vitro activity against selected species (MIC50, MIC90, range); format: cell-based; conditions: Enterococcus faecalis, medium IsoB
[3] = medium IsoB (Isosensitest Broth)

Structure (SMILES): N#CCN1CC/C(=C\C2=C(C(=O)O)N3C(=O)[C@@H](NC(=O)/C(=N\O)c4csc(N)n4)[C@H]3SC2)C1=O [M, [6R-[3(E),6α,7β(Z)]]-7-[[(2-Amino-4-thiazolyl)(hydroxyimino)acetyl]-amino]-3-[[1-cyanomethyl-2-oxo-3-pyrrolidinylidene]methyl]-8-oxo-5-thia-1-azabicyclo[4.2.0]oct-2-ene-2-carboxylic acid]
- MIC (Acinetobacter sp.51-156): 8 µg/mL (≈ 15.9 µM)
- MIC (C.freundii 43): 8 µg/mL (≈ 15.9 µM)
- MIC (C.freundii 902): 0.25 µg/mL (≈ 0.497 µM)
- MIC (E.cloacae 908R): 16 µg/mL (≈ 31.8 µM)
- MIC (E.cloacae 908SSi): 1 µg/mL (≈ 1.99 µM)
- MIC (E.coli 25922): ≤ 0.06 µg/mL
- MIC (E.faecalis 6): 1 µg/mL (≈ 1.99 µM)
- MIC (H.influenzae 1): 0.5 µg/mL (≈ 0.993 µM)
- MIC (K.pneumoniae 418): 0.12 µg/mL (≈ 0.238 µM)
- MIC (L.monocytogenes BK23): 4 µg/mL (≈ 7.94 µM)
- MIC (M.catarrhalis RA21): 8 µg/mL (≈ 15.9 µM)
- MIC (M.morganii 6H-137): ≤ 0.06 µg/mL
- MIC (N.meningitidis 69480): ≤ 0.06 µg/mL
- MIC (P.aeruginosa 27853): 8 µg/mL (≈ 15.9 µM)
- MIC (P.mirabilis 2117): ≤ 0.06 µg/mL
- MIC (P.vulgaris 1028): 8 µg/mL (≈ 15.9 µM)
- MIC (S.agalactiae QK44): 0.25 µg/mL (≈ 0.497 µM)
- MIC (S.aureus 6538): 1 µg/mL (≈ 1.99 µM)
- MIC (S.aureus 734 MRSA): 4 µg/mL (≈ 7.94 µM)
- MIC (S.marcescens 69438): 4 µg/mL (≈ 7.94 µM)
- MIC (S.pneumoniae Q19): ≤ 0.06 µg/mL
- MIC (S.pyogenes B15): ≤ 0.06 µg/mL
- MIC (S.viridans group 016): 1 µg/mL (≈ 1.99 µM)
- MIC (X.maltophilia 1AC739): > 32 µg/mL

Structure (SMILES): C=CCN1CC/C(=C\C2=C(C(=O)O)N3C(=O)[C@@H](NC(=O)/C(=N\O)c4csc(N)n4)[C@H]3SC2)C1=O [L, [6R-[3(E),6α,7β(Z)]]-3-[[1-Allyl-2-oxo-3-pyrrolidinylidene]methyl]-7-[[(2-amino-4-thiazolyl)(hydroxyimino)acetyl]amino]-8-oxo-5-thia-1-azabicyclo[4.2.0]oct-2-ene-2-carboxylic acid]
- MIC (Acinetobacter sp.51-156): 16 µg/mL (≈ 31.7 µM)
- MIC (C.freundii 43): 4 µg/mL (≈ 7.93 µM)
- MIC (C.freundii 902): ≤ 0.06 µg/mL
- MIC (E.cloacae 908R): 16 µg/mL (≈ 31.7 µM)
- MIC (E.cloacae 908SSi): 0.25 µg/mL (≈ 0.495 µM)
- MIC (E.coli 25922): ≤ 0.06 µg/mL
- MIC (E.faecalis 6): 2 µg/mL (≈ 3.96 µM)
- MIC (H.influenzae 1): 0.5 µg/mL (≈ 0.991 µM)
- MIC (K.pneumoniae 418): 0.12 µg/mL (≈ 0.238 µM)
- MIC (L.monocytogenes BK23): 4 µg/mL (≈ 7.93 µM)
- MIC (M.catarrhalis RA21): 8 µg/mL (≈ 15.9 µM)
- MIC (M.morganii 6H-137): ≤ 0.06 µg/mL
- MIC (N.meningitidis 69480): ≤ 0.06 µg/mL
- MIC (P.aeruginosa 27853): 16 µg/mL (≈ 31.7 µM)
- MIC (P.mirabilis 2117): ≤ 0.06 µg/mL
- MIC (P.vulgaris 1028): 2 µg/mL (≈ 3.96 µM)
- MIC (S.agalactiae QK44): 0.25 µg/mL (≈ 0.495 µM)
- MIC (S.aureus 6538): 1 µg/mL (≈ 1.98 µM)
- MIC (S.aureus 734 MRSA): 16 µg/mL (≈ 31.7 µM)
- MIC (S.marcescens 69438): 1 µg/mL (≈ 1.98 µM)
- MIC (S.pneumoniae Q19): ≤ 0.06 µg/mL
- MIC (S.pyogenes B15): ≤ 0.06 µg/mL
- MIC (S.viridans group 016): 1 µg/mL (≈ 1.98 µM)
- MIC (X.maltophilia 1AC739): > 32 µg/mL

Structure (SMILES): CC(C)(C)N1CC/C(=C\C2=C(C(=O)O)N3C(=O)[C@@H](NC(=O)/C(=N\O)c4csc(N)n4)[C@H]3SC2)C1=O [J]
- MIC (Acinetobacter sp.51-156): > 32 µg/mL
- MIC (C.freundii 43): 4 µg/mL (≈ 7.68 µM)
- MIC (C.freundii 902): 0.5 µg/mL (≈ 0.96 µM)
- MIC (E.cloacae 908R): 8 µg/mL (≈ 15.4 µM)
- MIC (E.cloacae 908SSi): 2 µg/mL (≈ 3.84 µM)
- MIC (E.coli 25922): 0.5 µg/mL (≈ 0.96 µM)
- MIC (E.faecalis 6): 2 µg/mL (≈ 3.84 µM)
- MIC (H.influenzae 1): 0.25 µg/mL (≈ 0.48 µM)
- MIC (K.pneumoniae 418): 1 µg/mL (≈ 1.92 µM)
- MIC (M.catarrhalis RA21): 16 µg/mL (≈ 30.7 µM)
- MIC (M.morganii 6H-137): 0.25 µg/mL (≈ 0.48 µM)
- MIC (N.meningitidis 69480): 0.12 µg/mL (≈ 0.231 µM)
- MIC (P.aeruginosa 27853): > 32 µg/mL
- MIC (P.mirabilis 2117): 0.12 µg/mL (≈ 0.231 µM)
- MIC (P.vulgaris 1028): 0.5 µg/mL (≈ 0.96 µM)
- MIC (S.agalactiae QK44): 0.25 µg/mL (≈ 0.48 µM)
- MIC (S.aureus 6538): 1 µg/mL (≈ 1.92 µM)
- MIC (S.aureus 734 MRSA): 16 µg/mL (≈ 30.7 µM)
- MIC (S.marcescens 69438): 1 µg/mL (≈ 1.92 µM)
- MIC (S.pneumoniae Q19): 0.12 µg/mL (≈ 0.231 µM)
- MIC (S.pyogenes B15): < 0.06 µg/mL
- MIC (S.viridans group 016): 1 µg/mL (≈ 1.92 µM)
- MIC (X.maltophilia 1AC739): > 32 µg/mL
- MIC (S.aureus MSSA; MIC range): 0.5 to 2 µg/mL (≈ 0.96 to 3.84 µM)
- MIC50 (S.aureus MSSA): 1 µg/mL (≈ 1.92 µM)
- MIC90 (S.aureus MSSA): 2 µg/mL (≈ 3.84 µM)
- MIC (S.pneumoniae PEN-R; [3]): 0.12 to 0.5 µg/mL (≈ 0.231 to 0.96 µM)
- MIC (S.pneumoniae PEN-R; medium IsoB + 20% serum): 0.1 to 1 µg/mL
- MIC50 (S.pneumoniae PEN-R; [3]): 0.25 µg/mL (≈ 0.48 µM)
- MIC90 (S.pneumoniae PEN-R; [3]): 0.5 µg/mL (≈ 0.96 µM)
- MIC50 (S.pneumoniae PEN-R; medium IsoB + 20% serum): 0.5 µg/mL
- MIC50 (S.viridans group): 2 µg/mL (≈ 3.84 µM)
- MIC90 (S.viridans group): 4 µg/mL (≈ 7.68 µM)
- MIC (S.viridans group; MIC range): 0.12 to 8 µg/mL (≈ 0.231 to 15.4 µM)
- MIC (E.faecalis [1]; MIC range): 1 to 8 µg/mL (≈ 1.92 to 15.4 µM)
- MIC50 (E.faecalis [1]): 2 µg/mL (≈ 3.84 µM)
- MIC90 (E.faecalis [1]): 4 µg/mL (≈ 7.68 µM)
- MIC (S.aureus MRSA; MIC range): 16 to 32 µg/mL (≈ 30.7 to 61.5 µM)
- MIC50 (S.aureus MRSA): 32 µg/mL (≈ 61.5 µM)
- MIC90 (S.aureus MRSA): 32 µg/mL (≈ 61.5 µM)
- MIC (E.faecium; MIC range): 2 to 32 µg/mL (≈ 3.84 to 61.5 µM)
- MIC50 (E.faecium): 4 µg/mL (≈ 7.68 µM)
- MIC (M.catarrhalis; MIC range): 2 to 32 µg/mL (≈ 3.84 to 61.5 µM)
- MIC50 (M.catarrhalis): 8 µg/mL (≈ 15.4 µM)
- MIC90 (M.catarrhalis): 16 µg/mL (≈ 30.7 µM)
- ED50 (Escherichia coli 25922): > 2 mg/kg
- MIC (E.faecalis [2]; MIC range): 0.5 to 4 µg/mL (≈ 0.96 to 7.68 µM)
- MIC50 (E.faecalis [2]): 2 µg/mL (≈ 3.84 µM)
- MIC90 (E.faecalis [2]): 2 µg/mL (≈ 3.84 µM)
